Values after ≈ are worked out from the molar mass of the structure shown. Like-named read-outs stand apart in the source and are kept apart here.
What was measured:
[1] = test system: ZR-75-30 (human breast cancer cell); assay: MTT assay, in vitro inhibition of proliferation of human tumor cells; format: cell-based; settings: for IC50: Homo sapiens, ZR-75-30, 72 h; for ZR-75-30 100 μg/ml IC %: inhibition at 100 μg/ml, 72 h
Method: (§1) The tumor cell lines used in the experiments were as follows: A549 (human lung cancer cells), HCT116 (human colon cancer cells), HepG2 (human hepatoma cells), ZR-75-30 (human breast cancer cell), purchased from Shanghai Institute of Pharmaceutical Industry.
(§2) The sample was dissloved in DMSO (Merck), and PBS was added to prepare a 1000 μg/mL of solution or a uniform suspension. And then, DMSO-containing PBS (−) was added to dilute the solution or suspension. The positive control medicaments were gemcitabine (GEM) and LY2334737 developed by Eli Lilly and Company.
(§3) MTT assay: 100 μL cell suspension (4˜5×10^4 cells/mL) was added into each well of 96-well plate, and cultured in 37° C., 5% CO2 incubator. After 24 h, the sample solution was added in duplicate, 10 μL/well, and incubated at 37° C., 5% CO2 for 72 h. 20 μL MTT solution (5 mg/mL) was added into each well. After 4 h, a dissolving solution was added, 100 μL/well. The plate was placed into the incubator. After dissolved, OD value at 570 nm was measured on MK-2 automatic microplate reader.

[2] = test system: HepG2 (human hepatoma cells); assay: as above; format: cell-based; settings: for IC50: Homo sapiens, HepG2, 72 h; for HepG2 100 μg/ml IC %: inhibition at 100 μg/ml, 72 h
Method: as §1, §2, §3

[3] = test system: A549 (human lung cancer cells); assay: as above; format: cell-based; settings: for IC50: Homo sapiens, A549, 72 h; for A549 100 μg/ml IC %: inhibition at 100 μg/ml, 72 h
Method: as §1, §2, §3

[4] = test system: HCT116 (human colon cancer cells); assay: as above; format: cell-based; settings: for IC50: Homo sapiens, HCT-116, 72 h; for HCT116 100 μg/ml IC %: inhibition at 100 μg/ml, 72 h
Method: as §1, §2, §3

[5] = test system: human colon cancer cells HCT116 xenografts; assay: In vivo antitumor activity test, xenografts in nude mice; settings: dosed 0.1-10 mg/kg body weight, better than LY2334737 at the same dose
Method: Some of the compounds were tested in vivo using human colon cancer cells HCT116 xenografts in nude mice according to a literature method (Wei Hong, Medical Laboratory Animal Science, Sichuan Science and Technology Press, 2nd edition, Chengdu, 2001, 595-596).

NCI 60 human tumor cells = assay: NCI in vitro cytotoxic activity screening; format: cell-based; settings: for GI50: Homo sapiens, derived from MGM; for MGM: NCI 60 human tumor cells, GI50 in M (log)
Method: The cytotoxic activities of Compounds SYN-141 and SYN-165 were assayed in NCI systemactically.

hepatitis C virus = settings: patients, minimum dose, within a few days (1-2 days in some cases); cited from earlier work

| IC50 [1] [mg/L] | IC50 [2] [mg/L] | IC50 [3] [mg/L] | IC50 [4] [mg/L] | melting point [°C] | SMILES | ZR-75-30 100 μg/ml IC % [1] [%] | HepG2 100 μg/ml IC % [2] [%] | A549 100 μg/ml IC % [3] [%] | HCT116 100 μg/ml IC % [4] [%] | in vivo antitumor activity [5] | GI50 (NCI 60 human tumor cells; read-out: total average GI50 against 60 human tumor cells) [µM] | MGM (NCI 60 human tumor cells) | reduction of hepatitis C viral load (hepatitis C virus) [logarithmic unit] | GI50 (NCI 60 human tumor cells; read-out: total average GI50 against 60 human tumor cell lines) [µM] |
| --- | --- | --- | --- | --- | --- | --- | --- | --- | --- | --- | --- | --- | --- | --- |
| 1.13 (≈ 3.25 µM) | 0.246 (≈ 0.708 µM) | 7.82 (≈ 22.5 µM) | 0.193 (≈ 0.556 µM) | 184 | CCCCC(=O)Nc1ccn([C@@H]2O[C@H](CO)C(O)C2(F)F)c(=O)n1 (stereo partly drawn) [SYN-147, N^4-n-valeryl Gemcitabine Gemcitabine] | 90.22 | 59.49 | 58.09 | 88.14 | potent in vivo antitumor activity | – | – | – | – |
| 0.135 (≈ 0.347 µM) | 0.123 (≈ 0.316 µM) | 42.5 (≈ 109 µM) | 0.154 (≈ 0.395 µM) | 139 | CCCCCCCC(=O)Nc1ccn([C@@H]2O[C@H](CO)C(O)C2(F)F)c(=O)n1 (stereo partly drawn) [SYN-165, N^4-n-octanoyl Gemcitabine] | 96.30 | 77.90 | 55.82 | 99.01 | potent in vivo antitumor activity | 0.0758 | −7.12 | – | – |
| 4.7 (≈ 11.5 µM) | 7.2 (≈ 17.6 µM) | 5.6 (≈ 13.7 µM) | 0.269 (≈ 0.657 µM) | 111 | O=C(CCCc1ccccc1)Nc1ccn([C@@H]2O[C@H](CO)C(O)C2(F)F)c(=O)n1 (stereo partly drawn) [SYN-141, N^4-(4-phenyl)butyryl Gemcitabine] | 91.63 | 62.48 | 56.38 | 92.46 | potent in vivo antitumor activity | – | −6.21 | – | 0.62 |
| 3.01 (≈ 9.03 µM) | 84.4 (≈ 253 µM) | 4.26 (≈ 12.8 µM) | 0.395 (≈ 1.19 µM) | 198 | CCCC(=O)Nc1ccn([C@@H]2O[C@H](CO)C(O)C2(F)F)c(=O)n1 (stereo partly drawn) [SYN-140, N^4-n-butyryl gemcitabine] | 89.52 | 50.42 | 64.84 | 87.79 | potent in vivo antitumor activity | – | – | – | – |

Further lines, the compound ahead of its results:

| SMILES | IC50 [1] [mg/L] | IC50 [2] [mg/L] | IC50 [3] [mg/L] | IC50 [4] [mg/L] | melting point [°C] | ZR-75-30 100 μg/ml IC % [1] [%] | HepG2 100 μg/ml IC % [2] [%] | A549 100 μg/ml IC % [3] [%] | HCT116 100 μg/ml IC % [4] [%] | in vivo antitumor activity [5] | GI50 (NCI 60 human tumor cells; read-out: total average GI50 against 60 human tumor cells) [µM] | MGM (NCI 60 human tumor cells) | reduction of hepatitis C viral load (hepatitis C virus) [logarithmic unit] | GI50 (NCI 60 human tumor cells; read-out: total average GI50 against 60 human tumor cell lines) [µM] |
| --- | --- | --- | --- | --- | --- | --- | --- | --- | --- | --- | --- | --- | --- | --- |
| Nc1ccn([C@@H]2O[C@H](CO)[C@@H](O)C2(F)F)c(=O)n1 [GEM, gemcitabine] | 0.454 (≈ 1.72 µM) | 0.263 (≈ 0.999 µM) | 3.74 (≈ 14.2 µM) | 0.0237 (≈ 0.09 µM) | – | 96.60 | 53.34 | 57.57 | 78.07 | – | – | – | ≥ 2 | – |
| CCCC(CCC)C(=O)Nc1ccn([C@@H]2O[C@H](CO)[C@@H](O)C2(F)F)c(=O)n1 [LY-2334737, N4-valproyl gemcitabine, reference compound] | 29.3 (≈ 75.3 µM) | 1.78 (≈ 4.57 µM) | 18.3 (≈ 46.9 µM) | 3.81 (≈ 9.78 µM) | – | 78.36 | 67.52 | 60.05 | 84.51 | – | – | – | – | – |

From patent US20140235568A1, “GEMCITABINE AMIDE DERIVATIVE AND PREPARATION METHOD AND USE THEREOF” (priority 2011, published 2014)
